For 67 compounds, inhibition results are on record in article PMC8041284, “Tunable Methacrylamides for Covalent Ligand Directed Release Chemistry” (Journal of the American Chemical Society, 2021).

Where no end group is shown, it is not given here.

In one test the target is BTK (Homo sapiens, UniProt Q06187). Put plainly: biochemical. The following applies: read-out: BTK inhibition (%).
Chain of BTK (Q06187 402-655 limits assumed): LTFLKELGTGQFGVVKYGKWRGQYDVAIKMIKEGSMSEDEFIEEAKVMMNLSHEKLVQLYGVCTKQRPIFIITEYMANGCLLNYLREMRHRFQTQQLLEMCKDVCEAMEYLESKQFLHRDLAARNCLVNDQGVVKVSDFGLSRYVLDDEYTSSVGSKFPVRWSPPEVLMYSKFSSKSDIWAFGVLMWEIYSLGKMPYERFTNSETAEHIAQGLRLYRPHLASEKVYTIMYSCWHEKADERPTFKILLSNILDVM
On to `O=c1ccc2ccc3occc3c2o1` [PCM-0214995], for which the inhibition (commonly the change of the read-out against control, counted positive when it falls) at 10 µM was -19.3%.

Turning to `Cc1ccccc1CN1C(=O)C2=C(CCN(Cc3ccccc3)C2)N2CCN=C12` [PCM-0215534], the inhibition at 10 µM was -13.8%.

The same test, now with this note: read-out: BTK inhibition (%), 0.75 uM BTK, […] probe 3l, 15 min preincubation.
Consider `Nc1cccc2c1C(=O)N(C1CCC(=O)NC1=O)C2=O` (stereo not shown) [PCM-0095126], for which the inhibition at 10 µM came out at 11%. For `CNC(=O)c1c(C)oc2cc(Oc3ncnc4cc(OC)c(OC)cc34)ccc12` [PCM-0216648], the inhibition at 10 µM came out at 1.4%.

As for `O=C1C[C@@H]2[C@@H](CO)[C@H](O)C[C@@H]2O1` [PCM-0216100], the inhibition at 10 µM is -8.5%.

Take `C=C1C(=O)[C@]23[C@H](O)[C@H]1CC[C@H]2[C@@]12CO[C@]3(O)[C@@H](O)[C@@H]1C(C)(C)CC[C@@H]2O` [PCM-0214681]: the inhibition at 10 µM was -1.6%. Consider `CNC(=O)c1ccc(C)c(-n2c(C)cc(OCc3ccc(F)cc3F)c(Br)c2=O)c1` [PCM-0095443], for which the inhibition at 10 µM is -14.5%. Turning to `C[C@@H]1[C@H](O)[C@@H](C)/C=C/C=C/C=C/C=C/C=C/C=C/C=C/[C@H](O[C@@H]2O[C@H](C)[C@@H](O)[C@H](N)[C@@H]2O)C[C@@H]2O[C@](O)(C[C@@H](O)C[C@@H](O)[C@H](O)CC[C@@H](O)C[C@@H](O)CC(=O)O[C@H]1C)C[C@H](O)[C@H]2C(=O)O` [PCM-0214634], the inhibition at 10 µM was -3.1%. On the same count and under the same terms, for `COc1cccc(-n2c(=O)[nH]c3cc(Cl)n(-c4ccc(-c5cccc(OC)c5O)cc4)c3c2=O)c1` [PCM-0215555] the value was 99.3%; for `C=C1CC[C@@H]2[C@](C)(CO)[C@H](O)CC[C@@]2(C)[C@@H]1C/C=C1/C(=O)OC[C@H]1O` [PCM-0094814], -6.2%; for `C=CC(=O)N1C/C(=C\c2ccc([N+](=O)[O-])cc2)C(=O)/C(=C/c2ccc([N+](=O)[O-])cc2)C1` [PCM-0214766], -15.6%. Take `COc1ccc(C=O)c(O)c1` [PCM-0216133]: the inhibition at 10 µM stood at 5.4%. As for RKDVY [PCM-0214887], the inhibition at 10 µM came to 4.8%. In the case of `O=C(O)C[C@H](O)C[C@H](O)/C=C/c1c(C2CC2)nc2ccccc2c1-c1ccc(F)cc1` [PCM-0095199], the inhibition at 10 µM was -36.6%. Still for that read-out and setting: for `O=c1c(N=Nc2nccs2)c(-c2ccccc2)[nH]n1-c1nc(-c2ccccc2)cs1` [PCM-0215938] the value was 98.1%; for `O=C(/C=C/c1ccc(O)c(O)c1/C=C/c1ccc(O)c(O)c1)O[C@H](Cc1ccc(O)c(O)c1)C(=O)O` [PCM-0216354], 30.9%. As for `C=CC(=C)C` [PCM-0216155], the inhibition at 10 µM is 1.5%.

Consider `N[C@@H](CCC(=O)O)C(=O)O` [PCM-0215690], for which the inhibition at 10 µM came to 10.2%.

As to `C[C@@H]1O[C@@H](O[C@@H]2[C@@H](O)[C@H](OCCc3ccc(O)c(O)c3)O[C@H](CO)[C@H]2OC(=O)/C=C/c2ccc(O)c(O)c2)[C@H](O)[C@H](O)[C@H]1O` [PCM-0216174], the inhibition at 10 µM turned out to be 15.9%. For the compound `CC(C)(c1ccc(OCC(O)CO)cc1)c1ccc(OCC(O)CCl)cc1` (stereo not shown) [PCM-0215567], the inhibition at 10 µM is -2.3%. On the same count and under the same terms, as for `OC1OC[C@@H](O)[C@@H](O)[C@H]1O` (stereo partly shown) [PCM-0216193], the figure is 4.6%; as for `COc1cccc(CCc2ccccc2OCC(CN(C)C)OC(=O)CCC(=O)O)c1` (stereo not shown) [PCM-0214923], -22.6%.

With `Cc1oc2nc3c(c(NC(=O)CN4CCCC4=O)c2c1C)CCCC3` [PCM-0216053], the inhibition at 10 µM was determined as 12.4%. Consider `CC[C@H]1CN2CC[C@H]1C[C@H]2[C@H](O)c1ccnc2ccc(OC)cc12` [PCM-0215969], for which the inhibition at 10 µM was -13.1%. Regarding `CS(=O)(=O)c1ccc(-c2cnc(NCc3ccco3)n3cnnc23)cc1` [PCM-0215813], the inhibition at 10 µM was -6.9%.

On to `COC(=O)[C@H](c1ccccc1Cl)N1CCc2sccc2C1` [PCM-0090332], for which the inhibition at 10 µM came out at 2.3%. Consider `C[C@H]1[C@H](C)CC[C@]2(C(=O)O)CC[C@]3(C)C(=CC[C@@H]4[C@@]5(C)C[C@@H](O)[C@H](O)C(C)(C)[C@@H]5CC[C@]43C)[C@H]12` [PCM-0216596], for which the inhibition at 10 µM is 6.2%. Regarding `O=S(=O)(c1ccccc1)N(CC(F)(F)F)c1ccc(C(O)(C(F)(F)F)C(F)(F)F)cc1` [PCM-0095817], the inhibition at 10 µM came out at 27%. On to `CC1=CC(=O)CC(C)(C)C1=O` [PCM-0215085], for which the inhibition at 10 µM was 7.8%. The same measure, in the same setting: for `CC1=C[C@H]2Cc3[nH]c(=O)ccc3[C@]3(C1)NCCC[C@H]23` [PCM-0216475] the value was -10%; for `CCC(C)C(=O)O[C@@H]1[C@@H](OC(C)=O)[C@]2(C)[C@H](C(C)=O)CC[C@@]23O[C@]32CC[C@H]3C[C@@H](O[C@H]4C[C@@H](OC)[C@H](O[C@@H]5O[C@H](C)[C@@H](O)[C@@H](OC)[C@H]5O)[C@@H](C)O4)CC[C@]3(C)[C@@H]12` (stereo partly shown) [PCM-0216595], -11.6%; for `C#C[C@]1(O)CC[C@H]2[C@@H]3CCC4=CCCC[C@@H]4[C@H]3C(=C)C[C@@]21CC` [PCM-0214824], 27.2%. For the compound `O=C(O)CCNc1cc(N2CCc3ccccc3CC2)nc(-c2ccccn2)n1` [PCM-0215478], the inhibition at 10 µM is -3.1%.

Regarding `C[C@H](CCC(=O)NCCS(=O)(=O)O)[C@H]1CC[C@H]2[C@@H]3[C@@H](O)C[C@@H]4C[C@H](O)CC[C@]4(C)[C@H]3CC[C@]12C` [PCM-0215517], the inhibition at 10 µM is 5.4%.

Regarding `Nc1ccc(F)cc1NC(=O)c1ccc(CNC(=O)/C=C/c2cccnc2)cc1` [PCM-0215868], the inhibition at 10 µM was -5.4%.

For `CC#CCn1c(N2CCC[C@@H](N)C2)nc2c1c(=O)n(Cc1nc(C)c3ccccc3n1)c(=O)n2C` [PCM-0090431], the inhibition at 10 µM was -3.1%. For the compound `O=C(O)c1ccccc1` [PCM-0090294], the inhibition at 10 µM was -1.6%. Still for that read-out and setting: as for `Cc1[nH]c(=O)c(C#N)cc1-c1ccncc1` [PCM-0065386], the figure is -9.3%. Regarding `CC(C)C[C@H](NC(=O)CNC(=O)c1cc(Cl)ccc1Cl)B(O)O` [PCM-0095224], the inhibition at 10 µM was 5.4%. As for `COc1cc(C(C)=O)ccc1OCCCN1CCC(c2noc3cc(F)ccc23)CC1` [PCM-0095163], the inhibition at 10 µM is -16.3%. Take `C[C@H](NC(=O)CCC(F)(F)F)C(=O)N[C@@H]1C(=O)N(CCO)c2ncccc2-c2ccccc21` [PCM-0215760]: the inhibition at 10 µM was determined as 15.4%. As for `CC(C)(C)C1CCC(CC2=C(O)c3ccccc3C(=O)C2=O)CC1` (stereo not shown) [PCM-0214772], the inhibition at 10 µM came to 3.1%. With `COc1cc(-c2cc(-c3cccc(O)c3)cnc2N)cc(OC)c1OC` [PCM-0095813], the inhibition at 10 µM was found to be 29.3%. As to `O=C(COc1cccc2c(=O)[nH]ccc12)c1ccccc1` [PCM-0095624], the inhibition at 10 µM worked out at 5.4%. For `COc1cc(CCC(C)=O)ccc1O` [PCM-0094824], the inhibition at 10 µM is -0.8%.

Consider `Cc1cc(OCc2nnc(SC3CCCC3)n2-c2cccnc2)ccc1-c1ccc(S(C)(=O)=O)cc1` [PCM-0095789], for which the inhibition at 10 µM was found to be 0.8%. In the case of `COc1cc(C2Oc3cc(C4Oc5cc(O)cc(O)c5C(=O)C4O)ccc3OC2CO)ccc1O` (stereo not shown) [PCM-0094811], the inhibition at 10 µM was found to be 66.1%.

On to `CN[C@@H]1[C@H](O[C@H]2[C@H](O[C@H]3[C@H](O)[C@@H](O)[C@H](N=C(N)N)[C@@H](O)[C@@H]3N=C(N)N)O[C@@H](C)[C@]2(O)C=O)O[C@@H](CO)[C@H](O)[C@H]1O` [PCM-0215192], for which the inhibition at 10 µM is -10.2%.

For `CC(C)(C)C[C@@H]1N[C@@H](C(=O)NC2CCC(O)CC2)[C@H](c2cccc(Cl)c2F)[C@]12C(=O)Nc1cc(Cl)ccc12` (stereo partly shown) [PCM-0215450], the inhibition at 10 µM was 21.6%. The same measure, in the same setting: as for `O=C(O)c1cc(C(F)(F)F)ccc1N1CC[C@H](OCc2ccccn2)C1` [PCM-0215430], the figure is 8.5%; as for `CN(C)Cc1ccc(S(=O)(=O)n2ccc(/C=C/C(=O)NO)c2)cc1` [PCM-0214759], 9.3%. Still for that read-out and setting: as for `Cc1cccc(CC(=O)N2CCc3c2ccc(-c2cn(C)c4ncnc(N)c24)c3F)n1` [PCM-0095729], the figure is -9%; as for `Oc1ccc(OCc2ccccc2)cc1` [PCM-0086466], 8.6%. As to `CCN(c1cc(-c2ccc(CN3CCOCC3)cc2)cc(C(=O)NCc2c(C)cc(C)[nH]c2=O)c1C)C1CCOCC1` [PCM-0095796], the inhibition at 10 µM was -2.6%. Regarding `C[C@@H]1C(=O)O[C@H](C)[C@H]1C[C@@H](O)[C@](C)(O)[C@H]1CC[C@@]2(O)C3=CC(=O)[C@@H]4C[C@@H](O)[C@@H](O)C[C@]4(C)[C@H]3CC[C@]12C` [PCM-0216317], the inhibition at 10 µM is -5.4%. Still for that read-out and setting: as for `CCCCCCOC(=O)NC(=N)c1ccc(NCc2nc3cc(C(=O)N(CCC(=O)OCC)c4ccccn4)ccc3n2C)cc1` [PCM-0214664], the figure is -14%; as for `CCCCOc1ccc(C(=O)CCN2CCCCC2)cc1` [PCM-0085815], -10.1%; as for `CCN(CC)CCCC(C)Nc1c2ccc(Cl)cc2nc2ccc(OC)cc12` (stereo not shown) [PCM-0065371], -8.5%.

Regarding `Nc1ncnc2c1C(=O)N(c1ccc(C3CCC(CC(=O)O)CC3)cc1)CCO2` (stereo not shown) [PCM-0095810], the inhibition at 10 µM came to 3.1%. Regarding `CC(CCc1ccccc1)NCC(=O)c1ccc(O)c(C(N)=O)c1` (stereo not shown) [PCM-0216052], the inhibition at 10 µM was -18.5%. As to `CN1CCC[C@H]1c1cccnc1` [PCM-0215258], the inhibition at 10 µM was -1.6%. Turning to `Cc1cccc(-c2[nH]c(CNc3ccccc3F)nc2-c2ccc3ncnn3c2)n1` [PCM-0215382], the inhibition at 10 µM was -1.5%. In the case of `N#CC(C#N)=NNc1ccc(OC(F)(F)F)cc1` [PCM-0215645], the inhibition at 10 µM came out at 52.5%. With `CCCC(=O)Nc1cccc(NC(=O)c2ccccc2Br)c1` [PCM-0095401], the inhibition at 10 µM worked out at 19.5%. On to `CCCCC(=O)N(Cc1ccc(-c2ccccc2-c2nn[nH]n2)cc1)[C@H](C(=O)O)C(C)C` [PCM-0090417], for which the inhibition at 10 µM was -27.2%.

Consider `CC(=O)N1c2ccc(-c3ccc(C(=O)O)cc3)cc2[C@H](Nc2ccc(Cl)cc2)C[C@@H]1C` [PCM-0215400], for which the inhibition at 10 µM turned out to be 31.7%. With `Clc1ccc(C(Cn2ccnc2)OCc2ccsc2Cl)c(Cl)c1` (stereo not shown) [PCM-0085844], the inhibition at 10 µM is -41.2%.
